Tested on: HCT116 cells
Assay: pH-dependent cellular uptake (flow cytometry, fluorescence)
Assay type: cell-based, human
Settings: fluorescence and flow cytometry
Method: HCT116 cells were exposed to PMNs, InS-NPs and Ce6 at different pHs to verify their cellular uptake respectively. The cells were incubated for 2 h, washed, harvested, and re-suspended with DPBS. In vitro cellular uptake was quantified using a flow cytometer (Beckman, San Jose, Calif., USA). For each sample 10,000 cells (gated events) were counted, and free Ce6 fluorescence was detected with logarithmic settings (FL4; λem=670 nm). Cells were counted as positive if their fluorescence (FL4) was higher than that of cells from an untreated cell suspension. Each experiment was analyzed statistically using the CXP Analysis Program.
The tumor cellular uptake of PMNs was monitored at different pH conditions (pH 7.4 and 6.8) using a KODAK In vivo Image Station (Image Station 4000 MM; Kodak, New Haven, Conn., USA) and a flow cytometer (Beckman, San Jose, Calif., USA). HCT116 cells (1×10^5 cells/mL) were incubated with each sample for 2 h in RPMI-1640 medium (pH 7.4 or 6.8, with 1% penicillin-streptomycin) at 37° C. and then analyzed. To ameliorate photobleaching during microscope observation, a drop of anti-fade mounting solution (5% N-propyl gallate, 47.5% glycerol, and 47.5% Tris-HCl, pH 8.4) was added to the cells.

## chlorin E6 [Ce6]
  cellular uptake at pH 6.8 versus pH 7.4: not affected by changes in pH
